In US9029329B2, “Caspase-14 activator peptides and compositions comprising said peptides” (ISP Investments Inc., priority 2010, dated 2015):
No end group written: not given here.

Assays:
[1] = tested on: NHK cells; experiment: Comets test on UVB-irradiated NHK cells (DNA damage, Tail Moment); assay type: cell-based, human
Experimental: For this purpose, NHK cells were: • under condition a: cultured for 24 hours with the peptide compound of sequence SEQ ID NO: 3 at a concentration of 1% and 3%, and then irradiated with UVB radiation at 20 mJ/cm^2, in order to observe the protective effect of the peptide active ingredient on the cells; • under condition b: irradiated, in a first step, with UVB radiation at 20 mJ/cm^2, and then treated for 24 hours with said peptide compound at a concentration of 1% and 3%, in order to observe the repairing effect of the active ingredient on the cells.
The cells were then removed by trypsination from their carrier, and then centrifuged at 900 rpm for 5 minutes before being concentrated and counted.
A specific cell count (25,000 cells) was then incorporated into a 0.75% Low Melting agarose gel, and then deposited on a glass slide previously coated with 1% agarose. The slides were then immersed in a lysis solution for 1.5 hours at 4° C., and then in an alkaline solution for 20 minutes at 4° C. The cells were then lysed and the DNA denatured. The slides were immersed in an electrophoresis solution before applying an electric field (20 V-250 mA). The thus denatured DNA was subjected to migration within an agarose gel at 4° C. Applying a DNA fluorescent dye on the slides (2 μg/ml propidium iodide) allowed the DNA to be observed in the form of comets in those cases where it had been damaged.
Quantification software is used to determine the average Tail Moment applied to each condition being tested. This parameter provides information on the level of DNA damage: the higher it is, the greater the DNA damage.

[2] = tested on: pro/filaggrin; experiment: Pro/filaggrin immunostaining in cultured human skin biopsies; assay type: cell-based; conditions: peptide at 1% or 3%, 24 hours and 72 hours, dose-dependent and increases with time
Experimental: Samples of human skin were cultured at the air/liquid interface. Under a first condition, the samples were treated with the 1% peptide SEQ ID NO: 1 for 24 hours and 72 hours. Under a second condition, the samples were treated with the same peptide but at a concentration of 3% for 24 hours and 72 hours.
These skin samples were thereafter fixed with formaldehyde and then incorporated in paraffin. Sections 2 to 3 μm in size were then made. Immunostaining was carried out after unmasking specific sites by incubation in pepsin. Immunostaining was then performed by means of a filaggrin-specific mouse monoclonal antibody (Tebu Santa Cruz), followed by a secondary antibody, coupled with a fluorescent marker. The skin sections were then examined using an epifluorescence microscope (Nikon® Eclipse E600 microscope).

[3] = tested on: caspase-14; experiment: Caspase-14 expression in normal human keratinocytes by immunofluorescence; assay type: cell-based; conditions: NHKs, peptide at 1% or 3%, 24 hours; dose-dependent, greater at 3% than at 1%
Experimental: Cultured normal human keratinocytes, NHKs, were treated with 1% or 3%-peptide SEQ ID NO: 2 for 24 hours. The cells were then washed, fixed with 3.7%-paraformaldehyde using 0.1%-triton in the presence of bovine serum albumin (BSA) (diluted to 1/100th). The cells were incubated in the presence of a caspase-14-specific mouse monoclonal antibody (BD Biosciences), and then of a secondary antibody, coupled with a fluorescent marker. The cells were then examined by means of an epifluorescence microscope (Nikon® Eclipse E600 microscope).

[4] = tested on: caspase-14; experiment: Caspase-14 expression by Western Blot in NHKs with or without caspase-14 siRNA; assay type: cell-based, human
Experimental: NHK cells were cultured in 6-well plates up to a confluence of 60% and then treated with 20 μL of 1%-peptide SEQ ID NO: 2. Then, 100 μL of a previously prepared mixture containing the siRNA of caspase-14 and the transfecting agent were carefully added dropwise, on a well per well basis. The cell culture plate was incubated at 37° C. and at 5% CO2 for 72 hours. The culture medium was renewed every 2 days. Four conditions were implemented: • condition 1: control containing no siRNA nor peptide active ingredient • condition 2: siRNA-transfected cells, containing no peptide active ingredient • condition 3: cells that are not transfected but treated with the peptide active ingredient • condition 4: cells transfected with siRNA, and treated with the peptide active ingredient
The quantification of caspase-14 expression is observed using the conventional immunoblotting technique (Western Blot) carried out by means of an anti-caspase-14 antibody and according to a conventional protocol. To analyze the compensation brought about by the peptide in the NHKs transfected with siRNA, a comparison was performed with respect to non-treated NHKs whose gene had not been extinguished by siRNA.

[5] = tested on: cyclobutane-pyrimidine dimers; experiment: CPD immunostaining on human skin biopsies subjected to UVB radiation; assay type: cell-based; conditions: UVB 200 mJ/cm^2, then topical 1% or 3% solution for 24 hours; repair dose-dependent
Experimental: Human skin biopsies were cultured at the air/liquid interface. These biopsies were subjected to UVB radiation at 200 mJ/cm^2. After irradiation, under a first condition, a 1%-solution of peptide SEQ ID NO: 2 was applied topically to the biopsies for 24 hours. Under a second condition, a 3%-solution of peptide SEQ ID NO: 2 was applied topically for 24 hours. Control conditions are achieved by the topical application of a PBS solution after irradiation.
For staining the cyclobutane-pyrimidine dimers, the skin biopsies were incorporated into paraffin and histological 3 μm thick sections were made. The slides were deparaffinized, hydrated and subjected to immunostaining with an antibody directed against cyclobutane-pyrimidine dimers (MBL D194-1, mouse monoclonal), followed by a suitable secondary antibody (Invitrogen™ A21202), coupled with a fluorescent marker. The skin sections were then examined with an epifluorescence microscope (Nikon® Eclipse E 80i microscope).

## Asn-Arg-Ile-Gln-Ala-Cys-Arg-Gly-NH2 (NRIQACRG-NH2) [peptide SEQ ID NO: 3]
[1]; condition a: 24 hours pretreatment at 1%, then UVB 20 mJ/cm^2, vs UVB control
  Tail Moment decrease: 57%
[1]; condition a: 24 hours pretreatment at 3%, then UVB 20 mJ/cm^2, vs UVB control
  Tail Moment decrease: 57%
[1]; condition b: UVB 20 mJ/cm^2, then 24 hours treatment at 1%
  Tail Moment decrease: 31%
[1]; condition b: UVB 20 mJ/cm^2, then 24 hours treatment at 3%
  Tail Moment decrease: 58%

## Asp-Pro-Ile-Gln-Ala-Cys-Arg-Gly-NH2 (DPIQACRG-NH2) [peptide SEQ ID NO: 1]
[2]
  pro/filaggrin staining: increase

## Ile-Gln-Ala-Cys-Arg-Gly-NH2 (IQACRG-NH2) [peptide SEQ ID NO: 2]
[3]
  light intensity (caspase-14 fluorescence) with respect to the control conditions: increase
[4]; non-transfected NHKs, 1% peptide, 72 hours (condition 3 vs condition 1)
  increase in caspase-14 protein expression with respect to the control: 20.9%
[4]; siRNA-transfected NHKs treated with 1% peptide, 72 hours (condition 4 vs condition 1)
  decrease in caspase-14 protein expression with respect to the control conditions: 14%
[5]
  CPD fluorescence compared with the control conditions with UVB radiation: much weaker fluorescence
